Data on seven molecules can be found in article PMC7464173, “Phosphate Derivatives of 3-Carboxyacylbetulin: SynThesis, In Vitro Anti-HIV and Molecular Docking Study” (Biomolecules, 2020).

Data set [1] is described as follows: Cytotoxicity, MTT assay in CEM-T4 cells. The format is cell-based. The note with it: human. As to the method: For the determination of compounds’ cytotoxicity, CEM-T4 cells were obtained from the NIH AIDS Reagent Program (NIH, US) and were cultured in RPMI supplemented with 10% FCS (Biochrom) and antibiotics at 37 °C in 5% CO2 on 96-well culture plates. The experiments were carried out in media containing tested compounds in concentrations of the appropriate range. Cultures in a neat medium (RPMI, 10% FCS) were used as a control. Viability of cells was determined after 7 days using the MTT assay in which 10 μL of MTT solution (5 mg/mL) was added to each culture plate well, and cultures were incubated for 3 h at a temperature of 37 °C. After the centrifugation, the supernatant was removed, and DMSO was added for lysis of the cells and to dissolve crystals of formazan. Color intensity was measured with a plate reader at 560 nm.
Newly synthesized compounds 2–5 were evaluated for their activity against HIV-1 in a CEM-T4 cell line. First, a cytotoxicity assessment of the synthesized derivatives was performed using the MTT [3-(4,5-dimethylthiazol-2-yl)-2,5-diphenyltetrazolium bromide]. The results were expressed as CC50 (concentration of compound causing 50% cell death). Anti-HIV activity was expressed as IC50 (concentration of compound causing 50% inhibition of replication) and consisted of measurements of p24 antigen made using the Genscreen ULTRA HIV Ag-Ab Kit.

Data set [2] has as its system HIV-1. Kind of data set: Anti-HIV-1 replication activity, p24 antigen ELISA in HIV-infected CEM-T4 cell line. Format: cell-based. Particulars: for IC50: Human immunodeficiency virus 1, CEM-T4, 168 h; for ability to inhibit HIV replication: tested range of concentrations 0.02 to 10 μM; for TI: therapeutic index (selectivity index), the ratio of CC50 to IC50. (In an ELISA, binding on a coated surface is turned into a signal by an enzyme label.)

Data set [3] relates to HIV-1. More on the design: method as in PMID 31640137. Particulars: in vitro anti-HIV-1 activity; cited from earlier work.
For data set [4] the following is noted: cytotoxicity; cited from earlier work.
Setting [5] is: concentration causing 50% cell death, CEM-T4 cells, MTT, 7 days, read-out: CC50.
Where [6] appears, read: cytotoxicity values, CEM-T4 cells, read-out: IC50 (cytotoxicity).

Read-outs that look alike come from different tables or passages of the source.

Broadly, the CC50 is the concentration giving 50% cytotoxicity. What is called IC50 is the concentration needed to halve the response being measured. Regarding `C=C(C)[C@@H]1CC[C@]2(COP(=O)(OCC)OCC)CC[C@]3(C)C(CCC4[C@@]5(C)CC[C@H](O)C(C)(C)C5CC[C@]43C)C12` (some centres unmarked) [Compound 2, 28-Diethoxyphosphorylbetulin], the CC50 at 7 days in data set [1] (setting [5]) was 18.3 ± 1.64 µM. Moreover, in the data set on HIV-1 [2], the IC50 was greater than 10 µM and the “ability to inhibit HIV replication” value is “did not demonstrate the ability to inhibit HIV replication”.
As for `C=C(C)[C@@H]1CC[C@]2(COP(=O)(OCC)OCC)CC[C@]3(C)C(CCC4[C@@]5(C)CC[C@H](OC(=O)CC(C)(C)CC(=O)O)C(C)(C)C5CC[C@]43C)C12` (some centres unmarked) [Compound 4, 28-Diethoxyphosphoryl-3-O-(3′,3′-dimethylglutaryl)betulin], in data set [1] (setting [5]), the CC50 at 7 days stood at 19.7 ± 1.64 µM. Moreover, the IC50 at 7 days in data set [1] (setting [6]) came to 19.7 µM. Also, in the data set with HIV-1 [2], the IC50 is 0.04 ± 0.01 µM and the TI is on record as 500.
In the case of `C=C(C)[C@@H]1CC[C@]2(C(=O)O)CC[C@]3(C)[C@H](CC[C@@H]4[C@@]5(C)CC[C@H](OC(=O)CC(C)(C)C(=O)O)C(C)(C)[C@@H]5CC[C@]43C)[C@@H]12` [BVM, 3-O-(3’,3’-dimethylsuccinyl)betulinic acid, reference compound], in data set [1], the midpoint of cytotoxicity, the CC50 at 7 days, lay at 29 ± 2.43 µM and the half-inhibitory concentration (IC50) at 7 days came out at 29 µM. This molecule had an IC50 in the data set on HIV-1 [2] of 0.03 ± 0.009 µM.
On to `C=C(CP(=O)(OCC)OCC)[C@@H]1CC[C@]2(C(=O)O)CC[C@]3(C)C(CC[C@@H]4[C@@]5(C)CC[C@H](OC(=O)CC(C)(C)C(=O)O)C(C)(C)C5CC[C@]43C)[C@@H]12` (some centres unmarked) [Compound 6, 30-diethoxyphosphoryl-3-O-(3′,3′-dimethylsuccinyl)betulinic acid], for which the IC50 with HIV-1 [3] is 0.02 µM. For the same molecule, the 50% cytotoxic concentration (CC50) in data set [4] is 68 µM.
Regarding `C=C(C)[C@@H]1CC[C@]2(CO)CC[C@]3(C)[C@H](CC[C@@H]4[C@@]5(C)CC[C@H](O)C(C)(C)[C@@H]5CC[C@]43C)[C@@H]12` [Compound 1, Betulin], in data set [1] (setting [5]), the cytotoxic concentration (CC50) at 7 days worked out at 46 ± 3.01 µM. Further, in the data set with HIV-1 [2], the IC50 was greater than 10 µM and the “ability to inhibit HIV replication” value is recorded as “did not demonstrate the ability to inhibit HIV replication”.
`C=C(C)[C@@H]1CC[C@]2(COP(=O)(OCC)OCC)CC[C@]3(C)C(CCC4[C@@]5(C)CC[C@H](OC(=O)CC(C)(C)C(=O)O)C(C)(C)C5CC[C@]43C)C12` (some centres unmarked) [Compound 3, 28-Diethoxyphosphoryl-3-O-(3′,3′-dimethylsuccinyl)betulin]: the CC50 at 7 days in data set [1] (setting [5]) is 25.4 ± 1.54 µM. The IC50 at 7 days in data set [1] (setting [6]) amounted to 25.4 µM. In the data set on HIV-1 [2], half-maximal inhibition (IC50) was put at 0.02 ± 0.01 µM and the TI is given as 1250.
On the same counts, the results for `C=C(C)[C@@H]1CC[C@]2(COP(=O)(OCC)OCC)CC[C@]3(C)C(CCC4[C@@]5(C)CC[C@H](OC(=O)CCC(C)(C)C(=O)O)C(C)(C)C5CC[C@]43C)C12` (some centres unmarked) [Compound 5, 28-Diethoxyphosphoryl-3-O-(4′,4′-dimethylglutaryl)betulin] are 15.1 ± 1.27 µM, 15.1 µM, 0.22 ± 0.05 µM and 68.
